In the supplement of paper PMC11061612:

Legend:
[1] = system: RCC10RGB (Kidney Carcinoma); assay: Bliss excess, mean over the matrix (fraction); higher = more synergy
How it was run: (§1)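 Bliss excess equals the observed combination effect minus the expected value EA + EB − EA·EB, where EA and EB are the effects of each agent alone. Combination Emax is the second-highest inhibition within the matrix. Inhibition was scaled from CellTiter-Glo 2.0 luminescence, with 0 set by vehicle wells and 1 by blank wells, after 72 hours of two-drug dosing of cells plated in 1536-well plates.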

HuO9 (Osteosarcoma) = assay: as above
How it was run: as §1

[2] = system: SKN-3 (Head and Neck Carcinoma); assay: as above
How it was run: as §1

[3] = system: MES-SA (Other Solid Carcinomas); assay: as above
How it was run: as §1

[4] = system: NCI-H1688 (Small Cell Lung Carcinoma); assay: as above
How it was run: as §1

[5] = system: ETK-1 (Biliary Tract Carcinoma); assay: as above
How it was run: as §1

[6] = system: GDM-1 (Acute Myeloid Leukemia); assay: as above
How it was run: as §1

HCC38 (Breast Carcinoma) = assay: as above
How it was run: as §1

[7] = system: NOMO-1 (Acute Myeloid Leukemia); assay: as above
How it was run: as §1

[8] = system: SW48 (Colorectal Carcinoma); assay: as above
How it was run: as §1

EW-22 (Ewing's Sarcoma) = assay: as above
How it was run: as §1

[9] = system: U-118-MG (Low Grade Glioma); assay: as above
How it was run: as §1

[10] = system: D-283MED (Other Solid Carcinomas); assay: as above
How it was run: as §1

[11] = system: HCC1143 (Breast Carcinoma); assay: combination Emax (second highest fraction inhibited in the dose matrix, 72 h); higher = more inhibition; extreme values may be limits of the assay
How it was run: as §1

[12] = system: MES-SA (Other Solid Carcinomas); assay: as above
How it was run: as §1

[13] = system: SLVL (B-Cell Non-Hodgkin's Lymphoma); assay: as above
How it was run: as §1

[14] = system: 647-V (Bladder Carcinoma); assay: as above
How it was run: as §1

[15] = system: SNG-M (Endometrial Carcinoma); assay: as above
How it was run: as §1

MSTO-211H (Mesothelioma) = assay: as above
How it was run: as §1

[16] = system: SW948 (Colorectal Carcinoma); assay: Bliss excess, mean over the matrix (fraction); higher = more synergy
How it was run: as §1

Row | Compound | Bliss excess [1] | Bliss excess (HuO9 (Osteosarcoma)) | Bliss excess [2] | Bliss excess [3] | Bliss excess [4] | Bliss excess [5] | Bliss excess [6] | Bliss excess (HCC38 (Breast Carcinoma)) | Bliss excess [7] | Bliss excess [8] | Bliss excess (EW-22 (Ewing's Sarcoma)) | Bliss excess [9] | Bliss excess [10] | combination Emax [11] | combination Emax [12] | combination Emax [13] | combination Emax [14] | combination Emax [15] | combination Emax (MSTO-211H (Mesothelioma)) | Bliss excess [16]
1 | CN(C)CCCOc1ccc(-c2ccc3ncc4c(c3c2)n(C2CCOCC2)c(=O)n4C)cn1 [AZD0156] + C=CCn1c(=O)c2cnc(Nc3ccc(N4CCN(C)CC4)cc3)nc2n1-c1cccc(C(C)(C)O)n1 [AZD1775] (first compound max 1 µM, partner max 1 µM) | -0.0775 | -0.0017 | -0.0276 | 0.0372 | -0.0033 | -0.0096 | -0.0566 | -0.0963 | 0.004 | -0.0172 | 0.006 | -0.0322 | -0.0408 | 0.6 | 0.768 | 0.904 | 0.446 | 0.58 | 0.667 | –
2 | CN(C)CCCOc1ccc(-c2ccc3ncc4c(c3c2)n(C2CCOCC2)c(=O)n4C)cn1 [AZD0156] + CCN(CCO)CCCOc1ccc2c(Nc3cc(CC(=O)Nc4cccc(F)c4)[nH]n3)ncnc2c1 [AZD2811] (first compound max 1 µM, 7x7, partner max 1 µM) | -0.039 | -0.009 | -0.0239 | 0.0836 | 0.0018 | -0.0087 | -0.0232 | -0.0451 | 0.0759 | -0.0164 | 0.005 | 0.0017 | 0.02 | 0.302 | 0.711 | 0.605 | 0.167 | 0.0754 | 0.27 | –
3 | CN(C)CCCOc1ccc(-c2ccc3ncc4c(c3c2)n(C2CCOCC2)c(=O)n4C)cn1 [AZD0156] + C[C@@H]1COCCN1C2=NC(=NC(=C2)C3(CC3)[S@](=N)(=O)C)C4=C5C=CNC5=NC=C4 [AZD6738] (first compound max 1 µM, 7x7, partner max 10 µM) | -0.0129 | 0.0236 | 0.0368 | 0.0509 | -0.0004 | 0.0294 | -0.0439 | -0.0689 | 0.0095 | -0.0043 | 0.0143 | 0.0189 | 0.0357 | 0.871 | 0.807 | 0.84 | 0.491 | 0.964 | 0.856 | –
4 | C=CCn1c(=O)c2cnc(Nc3ccc(N4CCN(C)CC4)cc3)nc2n1-c1cccc(C(C)(C)O)n1 [AZD1775] + C1CN(CCC1(C(=O)N[C@@H](CCO)C2=CC=C(C=C2)Cl)N)C3=NC=NC4=C3C=CN4 [Capivasertib] (first compound max 3 µM, partner max 3 µM) | -0.0144 | -0.0495 | -0.0344 | – | -0.0409 | -0.107 | -0.0422 | -0.105 | 0.0076 | – | 0.0403 | -0.0726 | -0.0189 | 0.771 | 0.863 | 0.87 | 0.948 | 0.83 | 0.352 | -0.003
5 | C=CCn1c(=O)c2cnc(Nc3ccc(N4CCN(C)CC4)cc3)nc2n1-c1cccc(C(C)(C)O)n1 [AZD1775] + C[C@@H]1COCCN1C2=NC(=NC(=C2)C3(CC3)[S@](=N)(=O)C)C4=C5C=CNC5=NC=C4 [AZD6738] (first compound max 1 µM, partner max 10 µM) | -0.137 | 0.0672 | 0.0234 | 0.01 | 0.0326 | 0.0427 | 0.0041 | -0.0805 | 0.0261 | 0.0642 | -0.0218 | -0.0075 | 0.0327 | 0.906 | 0.852 | 0.917 | 0.769 | 0.947 | 0.85 | –
6 | C=CCn1c(=O)c2cnc(Nc3ccc(N4CCN(C)CC4)cc3)nc2n1-c1cccc(C(C)(C)O)n1 [AZD1775] + O=C(c1cc(Cc2n[nH]c(=O)c3ccccc23)ccc1F)N1CCN(C(=O)C2CC2)CC1 [Olaparib] (first compound max 1 µM, partner max 10 µM) | -0.0166 | 0.0102 | -0.0512 | -0.0694 | -0.0142 | -0.0292 | 0.0017 | -0.068 | -0.027 | -0.0398 | 0.0148 | -0.0766 | 0.0079 | 0.593 | 0.696 | 0.915 | 0.654 | 0.668 | 0.696 | –
7 | CCN(CCO)CCCOc1ccc2c(Nc3cc(CC(=O)Nc4cccc(F)c4)[nH]n3)ncnc2c1 [AZD2811] + C=CCn1c(=O)c2cnc(Nc3ccc(N4CCN(C)CC4)cc3)nc2n1-c1cccc(C(C)(C)O)n1 [AZD1775] (first compound max 1 µM, partner max 1 µM) | -0.0716 | 0.0204 | -0.0154 | 0.0752 | -0.006 | 0.0395 | -0.0484 | -0.0672 | 0.0412 | -0.013 | 0.0527 | 0.0469 | 0.0452 | 0.623 | 0.767 | 0.889 | 0.491 | 0.482 | 0.618 | –
